From US12234232B2, “Aromatic heterocyclic compound with kinase inhibitory activity” (SHANGHAI ENNOVABIO PHARMACEUTICALS CO., LTD., priority 2018, dated 2025)

How the values were obtained:
JAK3 protein = target: T1, JAK3 protein (Homo sapiens, UniProt P52333); assay: In vitro JAK3 kinase activity assay (HTRF kinEASE TK); assay type: biochemical; settings: 0.75 μM ATP, 25 minutes, room temperature; read-out: IC50 JAK3 (enzyme activity assay)
T1 construct: purchased Carna Biosciences
T1 sequence (P52333 1-1124): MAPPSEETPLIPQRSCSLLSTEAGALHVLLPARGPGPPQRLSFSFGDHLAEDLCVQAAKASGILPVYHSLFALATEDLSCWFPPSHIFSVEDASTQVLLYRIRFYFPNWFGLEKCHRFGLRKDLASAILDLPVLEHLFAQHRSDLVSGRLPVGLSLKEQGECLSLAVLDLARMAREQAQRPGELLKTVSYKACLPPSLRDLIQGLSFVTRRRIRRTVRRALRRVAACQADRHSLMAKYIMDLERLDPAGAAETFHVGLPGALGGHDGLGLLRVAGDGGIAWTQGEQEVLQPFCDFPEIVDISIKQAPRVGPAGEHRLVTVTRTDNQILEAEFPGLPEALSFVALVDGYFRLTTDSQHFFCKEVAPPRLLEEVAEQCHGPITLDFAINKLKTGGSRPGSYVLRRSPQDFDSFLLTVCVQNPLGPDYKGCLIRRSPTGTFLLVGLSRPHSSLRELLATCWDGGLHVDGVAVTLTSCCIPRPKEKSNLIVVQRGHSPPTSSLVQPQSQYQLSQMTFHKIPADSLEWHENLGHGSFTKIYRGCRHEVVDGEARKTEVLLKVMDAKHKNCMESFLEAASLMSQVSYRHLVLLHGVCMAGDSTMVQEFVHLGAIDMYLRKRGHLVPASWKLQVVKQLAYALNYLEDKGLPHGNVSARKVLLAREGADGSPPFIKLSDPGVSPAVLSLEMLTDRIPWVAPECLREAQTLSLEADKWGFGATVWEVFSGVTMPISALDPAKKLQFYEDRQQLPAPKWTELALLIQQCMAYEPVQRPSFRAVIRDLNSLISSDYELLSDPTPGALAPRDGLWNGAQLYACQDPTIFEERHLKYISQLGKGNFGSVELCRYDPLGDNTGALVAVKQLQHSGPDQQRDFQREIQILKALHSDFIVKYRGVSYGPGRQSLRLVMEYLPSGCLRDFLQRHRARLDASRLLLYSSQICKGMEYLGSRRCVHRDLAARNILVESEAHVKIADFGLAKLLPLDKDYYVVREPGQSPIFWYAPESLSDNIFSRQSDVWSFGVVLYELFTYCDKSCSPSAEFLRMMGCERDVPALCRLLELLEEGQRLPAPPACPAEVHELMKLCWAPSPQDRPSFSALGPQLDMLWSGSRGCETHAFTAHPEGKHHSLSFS
Procedure, shortened: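 Recombinant JAK3 ([…]) with 1 μM biotinylated TK substrate peptide and 0.75 μM ATP, 5 mM MgCl2, 1 mM DTT, 1% DMSO; 25 min at room temperature. HTRF read-out (SA-XL665, TK-antibody, overnight) as 665/620 ratio; compounds 10 μM–0.04 nM, 4-fold, duplicates; IC50 from 4-parameter fit.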

Mouse pharmacokinetics = assay type: in vivo; settings: CD-1 mice, 5 mg/kg, P.O.
Method: Test compound was intravenously (IV) or orally (PO) administrated to CD-1 mice. Blood samples were collected at different time points as indicated below. The concentration of the compounds in the mouse plasma was determined by LC-MS/MS and related parameters were calculated. The details are as follows: the required amount of the test product was taken to prepare a solution of the required concentration for intravenous injection or oral administration. The age of the animals was about 6-8 weeks at the beginning of the dosing experiment. Blood sampling time points are 0.083 h, 0.25 h, 0.5 h, 1 h, 2 h, 4 h, 8 h and 24 h after compound administration. The Phoenix WinNonlin 7.0 software was used to calculate the pharmacokinetic parameters through the blood drug concentration data at different time points.

JAK2 = JAK2 (Homo sapiens, UniProt O60674); assay: In vitro JAK2 kinase activity assay (HTRF kinEASE TK); assay type: biochemical; set-up: purchased Carna Biosciences; settings: 2.7 μM ATP, 25 minutes, room temperature; read-out: IC50 JAK2 (enzyme activity assay)
Procedure, shortened: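 HTRF kinase reaction with 0.001 ng/μl recombinant human JAK2, 1 μM biotinylated TK substrate peptide, 2.7 μM ATP, 5 mM MgCl2, 1 mM DTT, 25 min at room temperature; compounds 10 μM–0.04 nM, 4-fold steps, duplicate, 1% DMSO. Detection overnight; 665/620 ratio converted to % inhibition, IC50 by 4-parameter fit.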

JAK2, sequence (O60674 whole entry): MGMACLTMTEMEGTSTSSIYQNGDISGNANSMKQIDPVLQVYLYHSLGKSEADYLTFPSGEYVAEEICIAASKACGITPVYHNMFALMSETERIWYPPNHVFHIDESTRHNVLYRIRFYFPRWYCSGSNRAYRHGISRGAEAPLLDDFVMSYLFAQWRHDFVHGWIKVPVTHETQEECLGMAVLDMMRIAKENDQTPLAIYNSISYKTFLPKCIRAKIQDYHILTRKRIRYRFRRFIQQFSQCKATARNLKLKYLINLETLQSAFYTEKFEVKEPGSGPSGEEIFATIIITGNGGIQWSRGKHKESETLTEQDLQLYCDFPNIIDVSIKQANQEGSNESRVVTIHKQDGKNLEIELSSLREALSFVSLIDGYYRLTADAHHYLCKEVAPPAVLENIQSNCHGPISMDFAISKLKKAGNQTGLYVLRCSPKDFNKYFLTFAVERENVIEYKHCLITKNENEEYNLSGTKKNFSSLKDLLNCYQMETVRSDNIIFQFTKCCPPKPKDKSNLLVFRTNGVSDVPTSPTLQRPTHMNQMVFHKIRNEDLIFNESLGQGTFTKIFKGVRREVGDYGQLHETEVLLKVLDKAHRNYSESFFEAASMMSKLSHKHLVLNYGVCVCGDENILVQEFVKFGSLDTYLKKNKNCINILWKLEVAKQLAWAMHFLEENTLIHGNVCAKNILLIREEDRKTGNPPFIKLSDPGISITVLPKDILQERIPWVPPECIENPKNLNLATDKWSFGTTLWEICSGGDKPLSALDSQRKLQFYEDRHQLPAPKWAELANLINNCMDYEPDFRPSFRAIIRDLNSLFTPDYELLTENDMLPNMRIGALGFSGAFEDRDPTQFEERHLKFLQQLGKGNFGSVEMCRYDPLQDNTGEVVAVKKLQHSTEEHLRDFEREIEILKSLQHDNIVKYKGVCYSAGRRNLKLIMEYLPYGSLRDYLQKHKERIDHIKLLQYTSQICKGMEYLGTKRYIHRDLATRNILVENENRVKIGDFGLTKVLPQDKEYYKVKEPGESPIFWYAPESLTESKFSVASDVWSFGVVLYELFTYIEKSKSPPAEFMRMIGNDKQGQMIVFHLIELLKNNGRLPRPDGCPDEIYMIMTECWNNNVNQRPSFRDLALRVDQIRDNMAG

- IC50 (JAK3 protein): < 500 nM
- F (Mouse pharmacokinetics): 106%
- Cmax (Mouse pharmacokinetics; mouse, po, plasma): 1060 ng/mL
- half-life (Mouse pharmacokinetics; mouse, po, plasma): 3.79 h
- AUC(0-t) (Mouse pharmacokinetics; mouse, po, plasma, read-out: AUC0-24 hr): 10200 ng·h/mL
- IC50 (JAK2): < 100 nM
SMILES: CC[C@H](C(=O)Nc1nccc2c(-c3nc(Nc4cn(C)nc4OC)ncc3C)c[nH]c12)N1CCN(C)CC1 [Example 4, (R)—N-(3-(2-((3-Methoxy-1-methyl-1H-pyrazol-4-yl)amino)-5-methylpyrimidin-4-yl)-1H-pyrrolo[2,3-c]pyridin-7-yl)-2-(4-methylpiperazin-1-yl)butanamide]
